Data from PMC7586797, “Phase 1 Study to Evaluate the Effect of the Investigational Anticancer Agent Sapanisertib on the QTc Interval in Patients With Advanced Solid Tumors” (Clinical Pharmacology in Drug Development, 2020).
Values joined by “and” are separate entries in the source; they are usually repeats but may differ in a detail not shown here. Identical values can stand only once. Like-named read-outs stand apart in the source and are kept apart here.

Key:
[1] = system: CYP enzymes; settings: in vitro, clinically relevant concentrations; cited from earlier work
[2] = system: patients with advanced solid tumors; assay: Safety: adverse events (NCI CTCAE v4.03); format: in vivo, human
Protocol: (§1) On cycle 1 day 1, triplicate ECGs and plasma samples for PK were collected from patients ≤15 minutes prior to dosing and at 15 minutes; 30 minutes; and 1‐, 1.5‐, 2‐, 2.5‐, 3‐, 4‐, 6‐, 8‐, and 10‐hour time points after receiving a single oral dose of 40‐mg sapanisertib. The Holter recorders and ECG leads were removed from patients after collection of the 10‐hour time point ECG on day 1, following which patients were furloughed from site. Additional collections of ECGs and plasma samples for PK were conducted at 24 (cycle 1 day 2) and 48 hours (cycle 1 day 3) after dosing. After the first week, that is, cycle 1 day 8, patients had the option to continue to receive treatment with sapanisertib at a dose of 30 mg once weekly in continuous 28‐day cycles until disease progression, unacceptable toxicity, withdrawal of consent, or completion of the 12‐month maximum study duration.
(§2) PK parameters were calculated by noncompartmental methods using WinNonLin Professional version 6.1 (Certara, Princeton, New Jersey). The PK analysis population was defined as all patients who received at least 1 dose of sapanisertib and had sufficient concentration‐time data to calculate ≥1 PK parameters. The safety population included all patients who received ≥1 dose of sapanisertib, according to the National Cancer Institute Common Terminology Criteria for Adverse Events, version 4.03.

[3] = Plasma pharmacokinetics after single 40 mg oral dose (LC-MS/MS, noncompartmental); format: in vivo, human; settings: 40 mg single oral dose; for AUC(0-inf) / Cmax / Tmax / half-life: human, po, 40 mg
Protocol: as §1
Plasma samples were analyzed for sapanisertib using a validated liquid chromatography with tandem mass spectrometry method with deuterated sapanisertib used as the internal standard. Multiple reactant monitoring was performed using a positive electrospray method for the mass transitions (m/z) of 310.0 to 268.1 for sapanisertib and 317.0 to 269.1 for deuterated sapanisertib. A Shimadzu high‐pressure liquid chromatography system and Sciex API 4000 tandem mass spectrometry system were used with an Agilent Eclipse plus C18, 50 × 4.6 mm, 3.50‐µm column. For extraction, 50 µL of diluent (0.1% formic acid in acetonitrile/water, 50:50, v/v) and 20 µL of internal standard solution (0.5 µg/mL in diluent) were added to 50 µL of ethylenediaminetetraacetic acid plasma followed by vortex mixing. Plasma proteins were precipitated by adding 500 µL of 0.2% formic acid in acetonitrile followed by vortex mixing for 2 minutes and centrifugation for 5 minutes. A 40‐µL aliquot of the supernatant was transferred to a high‐pressure liquid chromatography vial containing 400 µL of reconstitution solution (10 mM ammonium formate and 10 mM citric acid in acetonitrile/water, 20:80, v/v). Injection volume was 10 µL. A gradient mobile phase (from 20% to 98%) was used, composed of mobile phase A: 0.1% formic/4 mM ammonium formate in water and mobile phase B: 0.1% formic acid and 4 mM ammonium formate in acetonitrile/water 98:2, v/v). The sapanisertib retention time was 1.7 minutes. The dynamic range of the assay was 1 to 1000 ng/mL. Assay accuracy expressed as %bias for the quality control samples ranged from –4.0% to –2.7% and assay precision expressed as percentage coefficient of variation (%CV) for quality control samples, ranged from 3.0% to 9.5% in plasma.
as §2

[4] = set-up: method as in Takeda, data on file; settings: human hepatocytes; ref Takeda, data on file; cited from earlier work
[5] = system: monkey; set-up: method as in data on file; settings: ref data on file, cited from earlier work
[6] = set-up: method as in data on file; settings: in vitro; ref data on file; cited from earlier work

CC(C)n1nc(-c2ccc3oc(N)nc3c2)c2c(N)ncnc21 [sapanisertib]
Inhibition or induction of CYP enzymes [1]: did not inhibit or induce CYP enzymes
Patients who died during the study ([2]; N = 44, neither death considered related to study drug): Two
AE of special interest: asthenic conditions ([2]; human, in vivo): 61%
AE of special interest: hyperglycemia ([2]; human, in vivo): 18%
AE of special interest: mucosal inflammation ([2]; human, in vivo): 25%
AE of special interest: rash ([2]; human, in vivo): 20%
AE of special interest: renal insufficiency ([2]; human, in vivo): 5%
Dehydration, grade ≥3 ([2]; human, in vivo): 5%
Diarrhea, grade ≥3 ([2]; human, in vivo): 5%
Fatigue, any grade ([2]; human, in vivo): 61%
Fatigue, grade ≥3 ([2]; human, in vivo): 16%
Hyperglycemia, grade ≥3 ([2]; human, in vivo): 5%
Nausea, any grade ([2]; human, in vivo): 80%
Patients who experienced adverse events ([2]; human, in vivo): 98%
Patients with grade ≥3 AEs ([2]; human, in vivo): 59%
Stomatitis, grade ≥3 ([2]; human, in vivo): 5%
Vomiting, any grade ([2]; human, in vivo): 57%
Patients who discontinued study due to AEs ([2]; in vivo): Four
CL (apparent clearance), Geometric mean (%CV) ([3]; empty stomach): 16.1 L/h and 16.1 (46.3) L/h
CL (apparent clearance), Mean (SD) ([3]; empty stomach): 18.3 (8.5) L/h
CL (apparent clearance), Median (range) ([3]; empty stomach): 18.0 (3.1–41.8) L/h
AUC(0-inf) ([3]; empty stomach, read-out: AUC∞, Geometric mean (%CV)): 2480 ng·h/mL
AUC(0-inf) ([3]; empty stomach, read-out: AUC∞, Mean (SD)): 2990 ng·h/mL
AUC(0-inf) ([3]; empty stomach, read-out: AUC∞, Median (range)): 2220 ng·h/mL
Cmax ([3]; empty stomach, read-out: Cmax, Geometric mean (%CV)): 297 ng/mL
Cmax ([3]; empty stomach, read-out: Cmax, Mean (SD)): 337 ng/mL
Cmax ([3]; empty stomach, read-out: Cmax, Median (range)): 317 ng/mL
Tmax ([3]; empty stomach, read-out: Tmax, Geometric mean (%CV)): 1.73 h
Tmax ([3]; empty stomach, read-out: Tmax, Mean (SD)): 2.51 h
Tmax ([3]; empty stomach, read-out: Tmax, Median (range)): 1.52 h
half-life ([3]; no unit in table (hours), read-out: T1/2 (terminal disposition half-life), Geometric mean (%CV) (converted)): 9.06 h
half-life ([3]; no unit in table (hours), read-out: T1/2 (terminal disposition half-life), Mean (SD) (converted)): 9.48 h
half-life ([3]; no unit in table (hours), read-out: T1/2 (terminal disposition half-life), Median (range) (converted)): 9.07 h
half-life ([3]; standard deviation 2.9 hours, read-out: Mean plasma half-life (converted)): 9.5 h
Share of hepatic metabolism mediated by cytochrome P450 (CYP) isozymes [4]: ~60%
Share of hepatic metabolism mediated by other non-CYP enzymes [4]: ~20%
Share of hepatic metabolism mediated by uridine 5'-diphospho-glucuronosyltransferases [4]: ~20%
Estimated free Cmax ([5]; 0.5 mg/kg): 230 nM
Electrocardiographic changes ([5]; single- or multiple-dose, up to 0.5 mg/kg): no remarkable electrocardiographic changes
Bound to human plasma proteins [6]: 70.5%
